These results are taken from the supplement of paper PMC8372320.

The nature of the series: photocatalytic hydrogen evolution rate (per 5 mg catalyst); higher = more photocatalytic H2 evolution; extreme values may be limits of the assay. The following applies: catalyst mass (mg): 5; Pt cocatalyst (wt%): 3; sacrificial medium: triethylamine/methanol/water 1:1:1.
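Note: aromatic molecules in triethylamine/methanol/water with Pt photoreduced in situ, irradiated 3 h under a 1 sun AM 1.5G solar simulator (350–1000 nm), H2 quantified by headspace gas chromatography; listed molecule itself used as the photocatalyst at 5 mg per vial.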

Turning to `O=C(O)c1cc(Br)c(C(=O)O)cc1Br`, the “photocatalytic hydrogen evolution rate” value came out at 0 µmol/h. To `O=Cc1cc(O)c(O)cc1O` belongs 0 µmol/h; to `CC(=O)c1ccc(C(C)=O)cc1`, 5.52 µmol/h; to `CCCCCCCCC1(CCCCCCCC)c2cc(Br)ccc2-c2ccc(Br)cc21`, 0 µmol/h. With `Cc1c(C2(c3cc(Br)c(O)c(Br)c3C)OS(=O)(=O)c3ccccc32)cc(Br)c(O)c1Br` the figure was 0 µmol/h; with `C=Cc1ccccc1`, 0 µmol/h; with `c1ccc2c(c1)c1ccccc1c1ccccc21`, 0.022 µmol/h. With `Brc1ccc(Br)nc1` the figure was 0 µmol/h; with `Cc1ccc(C#N)cc1N`, 0 µmol/h; with `O=Cc1ccc(Br)c(Cl)c1`, 1.45 µmol/h. Regarding `O=C(O)Cc1ccccc1`, the “photocatalytic hydrogen evolution rate” value was 0.0603 µmol/h.

Turning to `O=Cc1sc(Br)nc1Br`, the “photocatalytic hydrogen evolution rate” value turned out to be 0 µmol/h. Turning to `CCCCCCCCCCCCCCCCCCn1c(=O)c2ccc3sc4ccccc4c4ccc(c1=O)c2c34`, the “photocatalytic hydrogen evolution rate” value amounted to 12.3 µmol/h. Consider `c1ccc2c(c1)cc1ccc3cccc4ccc2c1c34`, for which the “photocatalytic hydrogen evolution rate” value is 0.00851 µmol/h.

In the case of `O=C(O)c1ccccc1[N+](=O)[O-]`, the “photocatalytic hydrogen evolution rate” value came out at 0 µmol/h.

As to `Oc1ccc2cc(Br)ccc2c1-c1c(O)ccc2cc(Br)ccc12`, the “photocatalytic hydrogen evolution rate” value worked out at 0 µmol/h. On to `OCCCCc1ccc2ccc3cccc4ccc1c2c34`, for which the “photocatalytic hydrogen evolution rate” value is 0.855 µmol/h. In the case of `O=C1Nc2c(Br)cc(Br)cc2C1=O`, the “photocatalytic hydrogen evolution rate” value stood at 0.874 µmol/h. To `c1ccc(-c2ccc(-c3ccc(-c4ccc(-c5ccccc5)cc4)cc3)cc2)cc1` belongs 0 µmol/h; to `N#Cc1cncc(C=O)c1`, 0.0889 µmol/h. To `N#Cc1ccnc(C#N)c1` belongs 0 µmol/h. With `N#Cc1ccc(Br)cn1` the figure was 0 µmol/h; with `N#Cc1ccc(-c2cccc(N)c2)cc1`, 0 µmol/h. Take `CCCc1ccc(C(=O)CC#N)cc1`: the “photocatalytic hydrogen evolution rate” value amounted to 0.0555 µmol/h. Take `N#Cc1c(F)c(F)c(F)c(F)c1C#N`: the “photocatalytic hydrogen evolution rate” value was 4.24 µmol/h. For `Nc1ccc(-c2ccc(N)c([N+](=O)[O-])c2)cc1[N+](=O)[O-]`, the “photocatalytic hydrogen evolution rate” value came to 0 µmol/h.

As for `N[C@@H](Cc1ccccc1)C(=O)O`, the “photocatalytic hydrogen evolution rate” value came to 0.0539 µmol/h.

On to `O=C1c2ccccc2C(=O)C1(O)O`, for which the “photocatalytic hydrogen evolution rate” value was 0 µmol/h.

Take `CC(=O)c1cc(C(C)=O)cc(C(C)=O)c1`: the “photocatalytic hydrogen evolution rate” value was 1.98 µmol/h. With `N#Cc1ccc(F)cc1` the figure was 0 µmol/h; with `O=c1cc(Br)[nH]c(Br)c1`, 0 µmol/h. Consider `N#Cc1cnc(Br)cn1`, for which the “photocatalytic hydrogen evolution rate” value turned out to be 0.721 µmol/h. As to `N#Cc1ccc(O)cc1`, the “photocatalytic hydrogen evolution rate” value was 0 µmol/h. To `Nc1nnc(Br)cc1Br` belongs 0.0148 µmol/h.

Consider `NC(c1ccccc1)(c1ccccc1)c1ccccc1`, for which the “photocatalytic hydrogen evolution rate” value came to 0 µmol/h. To `c1csc(-c2ccc(-c3cccs3)c3nsnc23)c1` belongs 0.84 µmol/h; to `COc1ccc(OC)cc1`, 0 µmol/h. To `CN1C(=O)c2ccc3c4ccc5c6c(ccc(c7ccc(c2c37)C1=O)c64)C(=O)N(C)C5=O` belongs 0 µmol/h; to `COC(=O)c1ccc2cc(C(=O)OC)ccc2c1`, 0.0623 µmol/h; to `O=Cc1ccc(-c2cccnc2)cc1`, 3.58 µmol/h.

Regarding `O=C(O)c1ccc(-c2ccc(-c3ccc(C(=O)O)cc3)cc2)cc1`, the “photocatalytic hydrogen evolution rate” value was 1.84 µmol/h. With `O=C1c2ccccc2C(=O)c2c(Cl)cccc21` the figure was 0 µmol/h. With `O=Cc1cncnc1` the figure was 0.0364 µmol/h. Take `Nc1cc(Br)ccc1Br`: the “photocatalytic hydrogen evolution rate” value was found to be 0 µmol/h.
